Results reported in patent US12540141B2, “Spiropyrrolidine derived antiviral agents” (priority 2020, dated 2026).

Target: SARS-CoV-2 3CL-protease (Severe acute respiratory syndrome coronavirus 2, UniProt P0DTD1)
Experiment: SARS-CoV-2 3C-Like (3CL) Protease Fluorescence Assay (FRET)
Format: biochemical
Conditions: SARS-CoV-2 3CL-protease 10 nM, 30 min preincubation at RT, substrate 40 μM

| Compound | IC50 |
| --- | --- |
| CC(C)C[C@@H](C(=O)N1C[C@]2(C[C@H]1C#N)C(=O)Nc1ccccc12)N(C)C(=O)C1(c2ccc3c(c2)OC(F)(F)O3)CC1 [Example 329] | < 0.1 µM |
| CC(C)C[C@@H](C(=O)N1C[C@]2(C[C@H]1C#N)C(=O)Nc1ccccc12)N(C)C(=O)c1ccc2ncccc2c1F [Example 330] | < 0.1 µM |
| CC(C)C[C@@H](C(=O)N1C[C@]2(C[C@H]1C#N)C(=O)Nc1ccccc12)N(C)C(=O)c1cc2ccc(C(F)(F)F)cc2[nH]1 [Example 331] | < 0.1 µM |
| CC(C)C[C@@H](C(=O)N1C[C@]2(C[C@H]1C#N)C(=O)Nc1ccccc12)N(C)C(=O)c1cc2cc(F)c(F)c(F)c2[nH]1 [Example 333] | < 0.1 µM |
| CC(C)C[C@@H](C(=O)N1C[C@]2(C[C@H]1C#N)C(=O)Nc1ccccc12)N(C)C(=O)c1cc2ccc(Cl)c(Cl)c2[nH]1 [Example 334] | < 0.1 µM |
| CC(C)C[C@@H](C(=O)N1C[C@]2(C[C@H]1C#N)C(=O)Nc1ccccc12)N(C)C(=O)N1CC[C@H](O)C1 [Example 335] | 0.1 to 1 µM |
| CC(C)C[C@@H](C(=O)N1C[C@]2(C[C@H]1C#N)C(=O)Nc1ccccc12)N(C)C(=O)c1cc2cccc(C(F)(F)F)c2[nH]1 [Example 336] | < 0.1 µM |
| CC(C)C[C@@H](C(=O)N1C[C@]2(C[C@H]1C#N)C(=O)Nc1ccccc12)N(C)C(=O)c1cn(-c2ccccc2)nn1 [Example 338] | < 0.1 µM |
| CC(C)C[C@@H](C(=O)N1C[C@]2(C[C@H]1C#N)C(=O)Nc1ccccc12)N(C)C(=O)c1ccc2nn(C3CC3)cc2c1 [Example 339] | 0.1 to 1 µM |
| CC(C)C[C@@H](C(=O)N1C[C@]2(C[C@H]1C#N)C(=O)Nc1ccccc12)N(C)C(=O)c1cc(F)c2nc(C3CC3)[nH]c2c1 [Example 340] | 0.1 to 1 µM |
| CC(C)C[C@@H](C(=O)N1C[C@]2(C[C@H]1C#N)C(=O)Nc1ccccc12)N(C)C(=O)c1cc(F)c2nc(C(F)F)cn2c1 [Example 341] | 0.1 to 1 µM |
| Cc1cc(F)c(C(=O)N(C)[C@@H](CC(C)C)C(=O)N2C[C@]3(C[C@H]2C#N)C(=O)Nc2ccccc23)cc1-c1cnn(C2CC2)c1 [Example 342] | < 0.1 µM |
| CC(C)C[C@@H](C(=O)N1C[C@]2(C[C@H]1C#N)C(=O)Nc1ccccc12)N(C)C(=O)c1ccc(OC2CC2)c(-c2cccnc2)c1 [Example 343] | < 0.1 µM |
| CC(C)C[C@@H](C(=O)N1C[C@]2(C[C@H]1C#N)C(=O)Nc1ccccc12)N(C)C(=O)[C@H]1CCN(C(=O)OC(C)(C)C)C1 [Example 344] | 0.1 to 1 µM |
| CC(C)C[C@@H](C(=O)N1C[C@]2(C[C@H]1C#N)C(=O)Nc1ccccc12)N(C)C(=O)[C@@H]1CCN(C(=O)OC(C)(C)C)C1 [Example 345] | < 0.1 µM |
| CC(C)C[C@@H](C(=O)N1C[C@]2(C[C@H]1C#N)C(=O)Nc1ccccc12)N(C)C(=O)[C@@H](c1cnn(C)c1)C(C)C [Example 348] | < 0.1 µM |
| CC(C)C[C@@H](C(=O)N1C[C@]2(C[C@H]1C#N)C(=O)Nc1ccccc12)N(C)C(=O)[C@H](c1cnn(C)c1)C(C)C [Example 349] | < 0.1 µM |
| CC(C)C[C@@H](C(=O)N1C[C@]2(C[C@H]1C#N)C(=O)Nc1ccccc12)N(C)C(=O)[C@@H](c1cn(C)nn1)C(C)C [Example 350] | < 0.1 µM |
| CC(C)C[C@@H](C(=O)N1C[C@]2(C[C@H]1C#N)C(=O)Nc1ccccc12)N(C)C(=O)[C@H](c1cn(C)nn1)C(C)C [Example 351] | < 0.1 µM |

| Compound | IC50 |
| --- | --- |
| CC(C)C[C@@H](C(=O)N1C[C@]2(C[C@H]1C#N)C(=O)Nc1ccccc12)N(C)C(=O)c1cnn(C(C)(C)C)c1 [Example 352] | < 0.1 µM |
| CC(C)C[C@@H](C(=O)N1C[C@]2(C[C@H]1C#N)C(=O)Nc1ccccc12)N(C)C(=O)c1cnn(-c2ccccc2C(F)(F)F)c1 [Example 353] | < 0.1 µM |
| CC(C)C[C@@H](C(=O)N1C[C@]2(C[C@H]1C#N)C(=O)Nc1ccccc12)N(C)C(=O)c1nnc(C2CC2)o1 [Example 354] | < 0.1 µM |
| CC(C)C[C@@H](C(=O)N1C[C@]2(C[C@H]1C#N)C(=O)Nc1ccccc12)N(C)C(=O)c1nnc(-c2ccc(F)cc2)o1 [Example 355] | < 0.1 µM |
| CC(C)C[C@@H](C(=O)N1C[C@]2(C[C@H]1C#N)C(=O)Nc1ccccc12)N(C)C(=O)c1nnn(C(C)(C)C)n1 [Example 356] | < 0.1 µM |
| CN(C(=O)c1cn(-c2ccc(F)cc2)nn1)[C@@H](Cc1ccccc1)C(=O)N1C[C@]2(C[C@H]1C#N)C(=O)Nc1ccccc12 [Example 357] | < 0.1 µM |
| CN(C(=O)c1cn(C2CCC2)nn1)[C@@H](Cc1ccccc1)C(=O)N1C[C@]2(C[C@H]1C#N)C(=O)Nc1ccccc12 [Example 358] | < 0.1 µM |
| CN(C(=O)c1cn(C2CC2)nn1)[C@@H](Cc1ccccc1)C(=O)N1C[C@]2(C[C@H]1C#N)C(=O)Nc1ccccc12 [Example 359] | < 0.1 µM |
| CN(C(=O)c1ccn(CC(F)(F)F)n1)[C@@H](Cc1ccccc1)C(=O)N1C[C@]2(C[C@H]1C#N)C(=O)Nc1ccccc12 [Example 360] | < 0.1 µM |
| CN(C(=O)c1ccn(C2CC2)n1)[C@@H](Cc1ccccc1)C(=O)N1C[C@]2(C[C@H]1C#N)C(=O)Nc1ccccc12 [Example 361] | < 0.1 µM |
| CN(C(=O)c1cn(CC(F)(F)F)nn1)[C@@H](Cc1ccccc1)C(=O)N1C[C@]2(C[C@H]1C#N)C(=O)Nc1ccccc12 [Example 362] | < 0.1 µM |
| CN(C(=O)c1cn(C(C)(C)C)nn1)[C@@H](Cc1ccccc1)C(=O)N1C[C@]2(C[C@H]1C#N)C(=O)Nc1ccccc12 [Example 363] | < 0.1 µM |
| CC(C)C[C@@H](C(=O)N1C[C@]2(C[C@H]1C#N)C(=O)Nc1ccccc12)N(C)C(=O)CC1CC1 [Example 364] | < 0.1 µM |
| CC(C)C[C@@H](C(=O)N1C[C@]2(C[C@H]1C#N)C(=O)Nc1ccccc12)N(C)C(=O)c1cn(C2CCC2)nn1 [Example 365] | < 0.1 µM |
| CC(C)C[C@@H](C(=O)N1C[C@]2(C[C@H]1C#N)C(=O)Nc1ccccc12)N(C)C(=O)CCNC(=O)OC(C)(C)C [Example 366] | < 0.1 µM |
| CC(C)C[C@@H](C(=O)N1C[C@]2(C[C@H]1C#N)C(=O)Nc1ccccc12)N(C)C(=O)CCN [Example 367] | < 0.1 µM |
| CC(C)C[C@@H](C(=O)N1C[C@]2(C[C@H]1C#N)C(=O)Nc1ccccc12)N(C)C(=O)CCNC(=O)c1ccc(F)cc1F [Example 368] | < 0.1 µM |
| COc1cccc2[nH]c(C(=O)N(C)[C@@H](COC(C)(C)C)C(=O)N3C[C@]4(C[C@H]3C#N)C(=O)Nc3ccccc34)cc12 [Example 370] | < 0.1 µM |
| CN(C(=O)c1cc2c(F)cc(F)cc2[nH]1)[C@@H](COC(C)(C)C)C(=O)N1C[C@]2(C[C@H]1C#N)C(=O)Nc1ccccc12 [Example 371] | < 0.1 µM |

| Compound | IC50 |
| --- | --- |
| C[C@@H](C(=O)N(C)[C@@H](CC(C)(C)C)C(=O)N1C[C@]2(C[C@H]1C#N)C(=O)Nc1ccccc12)c1cnn(C)c1 [Example 372] | < 0.1 µM |
| C[C@H](C(=O)N(C)[C@@H](CC(C)(C)C)C(=O)N1C[C@]2(C[C@H]1C#N)C(=O)Nc1ccccc12)c1cnn(C)c1 [Example 373] | < 0.1 µM |
| CN(C(=O)C(F)(F)F)[C@@H](CC(C)(C)C)C(=O)N1C[C@]2(C[C@H]1C#N)C(=O)Nc1ccccc12 [Example 374] | 0.1 to 1 µM |
| CN(C(=O)c1cc2c(OC3CC3)cccc2[nH]1)[C@@H](CC(C)(C)C)C(=O)N1C[C@]2(C[C@H]1C#N)C(=O)Nc1ccccc12 [Example 375] | < 0.1 µM |
| [2H]C([2H])([2H])N(C(=O)c1nc(-c2ccccc2)c[nH]1)[C@@H](CC(C)(C)C)C(=O)N1C[C@]2(C[C@H]1C#N)C(=O)Nc1ccccc12 [Example 376] | < 0.1 µM |
| [2H]C([2H])([2H])N(C(=O)c1cn(-c2ccc(Cl)cc2)nn1)[C@@H](CC(C)(C)C)C(=O)N1C[C@]2(C[C@H]1C#N)C(=O)Nc1ccccc12 [Example 377] | < 0.1 µM |
| [2H]C([2H])([2H])N(C(=O)c1cn(C2CC2)nn1)[C@@H](CC(C)(C)C)C(=O)N1C[C@]2(C[C@H]1C#N)C(=O)Nc1ccccc12 [Example 378] | < 0.1 µM |
| [2H]C([2H])([2H])N(C(=O)c1cn(C2CCC2)nn1)[C@@H](CC(C)(C)C)C(=O)N1C[C@]2(C[C@H]1C#N)C(=O)Nc1ccccc12 [Example 379] | < 0.1 µM |
| [2H]C([2H])([2H])N(C(=O)c1cn(CC(F)(F)F)nn1)[C@@H](CC(C)(C)C)C(=O)N1C[C@]2(C[C@H]1C#N)C(=O)Nc1ccccc12 [Example 380] | < 0.1 µM |
| [2H]C([2H])([2H])N(C(=O)c1ccc2ncc(C(F)(F)F)cc2c1)[C@@H](CC(C)(C)C)C(=O)N1C[C@]2(C[C@H]1C#N)C(=O)Nc1ccccc12 [Example 381] | < 0.1 µM |
| [2H]C([2H])([2H])N(C(=O)c1cc(OC(F)(F)F)c2ncccc2c1)[C@@H](CC(C)(C)C)C(=O)N1C[C@]2(C[C@H]1C#N)C(=O)Nc1ccccc12 [Example 382] | < 0.1 µM |
| [2H]C([2H])([2H])N(C(=O)c1cc(OC(F)F)c2ncccc2c1)[C@@H](CC(C)(C)C)C(=O)N1C[C@]2(C[C@H]1C#N)C(=O)Nc1ccccc12 [Example 383] | < 0.1 µM |
| CCCC[C@@H](C(=O)N1C[C@]2(C[C@H]1C#N)C(=O)Nc1ccccc12)N(C)C(=O)c1cc2c(F)cc(F)cc2[nH]1 [Example 384] | < 0.1 µM |
| CC[C@@H](C(=O)N1C[C@]2(C[C@H]1C#N)C(=O)Nc1ccccc12)N(C)C(=O)c1cc2c(F)cc(F)cc2[nH]1 [Example 385] | 0.1 to 1 µM |
| CCC[C@@H](C(=O)N1C[C@]2(C[C@H]1C#N)C(=O)Nc1ccccc12)N(C)C(=O)c1cc2c(F)cc(F)cc2[nH]1 [Example 386] | < 0.1 µM |
| CN(C(=O)OCc1ccccc1)[C@@H](Cc1ccc(OCc2ccccc2)cc1)C(=O)N1C[C@]2(C[C@H]1C#N)C(=O)Nc1ccccc12 [Example 387] | > 1 µM |
| CN(C(=O)c1cc2c(F)cc(F)cc2[nH]1)[C@@H](Cc1cccc(F)c1)C(=O)N1C[C@]2(C[C@H]1C#N)C(=O)Nc1ccccc12 [Example 389] | < 0.1 µM |
| [2H]C([2H])([2H])N(C(=O)c1cn(C2CCC2)nn1)[C@@H](Cc1ccc(F)cc1)C(=O)N1C[C@]2(C[C@H]1C#N)C(=O)Nc1ccccc12 [Example 390] | < 0.1 µM |
| [2H]C([2H])([2H])N(C(=O)c1cn(C2CC2)nn1)[C@@H](Cc1ccc(F)cc1)C(=O)N1C[C@]2(C[C@H]1C#N)C(=O)Nc1ccccc12 [Example 391] | < 0.1 µM |
